We go through one compound from EP0569777A2 (Bayer Corporation, priority 1992, dated 1993).

Experiment [1] concerns human brain P-2 derived aprotinin binding pool Y protease (chymotryptic-like serine protease). Briefly: Immunoblot assay of APP degradation by the pool Y serine protease. It counts as biochemical. The settings on record: 400 uM pepstatin in methanol; pool Y 14 ug/ml, APP 35 nM, Mes pH 6.5, 4 hr; Figure 18a. The procedure: Reactions were initiated at 37°C by enzyme addition to achieve the following initial component concentrations in a 16 ul volume: pool Y # 3-5 (14 ug/ml) after purification on a superdex 75 column, APP (35 nM), in 30 mM Mes buffer pH 6.5. Reactions were terminated by addition of 7.5 ul of 3X sample buffer. Immunoblots were developed using the rabbit antiserum to the APP C-terminal domain according to example 8. […] The following controls were also run: no inhibitor (lane 12), ethanol (lane 3), methanol (lane 5), pool Y only (lane 2), APP only at time zero (lane 13) and 4 hr (lane 14). Lanes 1 and 7 respectively show prestained Mr markers and the C-100 standard. Panel (b) 1.8 uM alpha-1-antichymotrypsin (lane 2), 156 uM TLCK (lane 3), 46 uM chymotrypsin inhibitor I (lane 4), 119 uM chymotrypsin inhibitor II (lane 5), 4 uM alpha-2-antiplasmin (lane 6), 51 uM alpha-1-antitrypsin (lane 7), 98 uM chymostatin administered in DMSO (lane 10), 153 uM methanolic TPCK (lane 12). Controls included: no inhibitor (lane 8), DMSO (lane 11), and methanol (lane 13). Pre-stained molecular weight markers and C-100 standards were applied to lanes 1 and 9 respectively. Incubation times of 4 and 2 hr were used in panels a) and b) respectively.
• i) Sub-cellular fractionation. This was performed essentially as described in Method 1, above. • ii) Solubilization. This was performed essentially as described in Method 1, above. • iii) Aprotinin-sepharose chromatography. Soluble (230 mg), P-2 (216 mg) or microsomal fraction (47 mg) described above was applied to a column of aprotinin sepharose (Sigma, catalog # 42268, 1.5 X 10 cm), previously equilibrated with 20 mM Tris HCl buffer pH 7.0. Once loaded the column was washed with equilibration buffer (100 ml), and then eluted with 60 ml of 50 mM sodium acetate buffer pH 5.0 containing 500 mM sodium chloride. The flow rate was 1.0 ml/min throughout. Eluted fractions (4 ml) were monitored at 280 nm, analysed using the Bradford protein assay, and examined for APP C-terminal processing activity as described in Example 8, using recombinant APP derived by expression in a baculo virus system. […] Active fractions from the purification of the P-2 fraction on aprotinin-sepharose were pooled, dialyzed against 50 mM Tris-HCl pH 7.5 and applied to a mono-Q column (HR 5/5), previously equilibrated with dialysis buffer. Once loaded, the column was eluted essentially as described in Method 1. above. Active fractions (2 ml), were monitored for A 280 nm, total protein (Bradford assay), and for their capacity for baculo virus derived APP C-terminal processing. […] Pools X, Y, and Z were each concentrated to either 2 ml (pool X and Y) or 3.6 ml (pool z) and separately applied to a Superdex 75 column (Pharmacia, Piscataway NJ.) previously equilibrated with 50 mM Tris-HCl pH 7.5, containing 150 mM sodium chloride. Once loaded, the column was eluted with equilibration buffer. Chromatography was performed at a flow rate of 1.0 ml/min throughout. Fractions (1 ml) were monitored for A 280 nm, total protein (Bradford assay) and for C-terminal processing of baculo expressed APP. The gel filtration was calibrated by chromatography of each of the following standard proteins: Thyroglobulin (670 kDa), bovine gamma globulin (158 kDa), ovalbumin (44 kDa), myoglobin (17.5 kDa) and vitamin B 12 (1.35 kDa).
Background: Immunoblotting shows a protein as a band on a membrane.

The target in experiment [2] is human brain P-2 enzyme (peak B), aspartic protease identified as cathepsin D (Homo sapiens, UniProt P07339). Description: N-dansyl peptide (SEQ ID NO: 7) peptidase assay with HPLC detection, P-2 enzyme (peak B). It counts as biochemical. The conditions noted are these: pepstatin A 213 uM; P-2 enzyme 17.5 ug/ml, N-Dansyl-peptide 24 uM, pH 5.0, 37 C; Figure 10. The procedure:
Reactions (30 ul) were initiated at 37 C by enzyme/inhibitor addition thereby achieving the following t=0 component concentrations: Cathepsin D (2.8 ug/ml), or P-2 enzyme from figure 6 (17.5 ug/ml), N-Dansyl-peptide (24 uM), captopril (0.3 mM) in a cocktail buffer comprising 130 mM in each of acetate, Mes and Tris pH 5.0. Samples contained either pepstatin A (213 uM in 3% v/v final methanol) or an equivalent final concentration of methanol only. At 0, 2, 4, 8 and 24hr, reactions were terminated by addition of 12 % (v/v) TFA (10 ul) and subject to HPLC analysis according to example 2 and 3.
• i) Incubations. […] Incubation with ion-exchange fractions was performed at 37°C for 24 hrs, after which reactions were terminated by adjusting to 3% (v/v) final in TFA. • ii) HPLC quantification of proteolytic products. HPLC analysis was performed using a Hewlet-Packard HP1090 complete with binary solvent delivery, heated column compartment, and auto injector.

SMILES strings stand for the structures. Where a SMILES comes first, the peptide text is derived from it. [ ]: non-standard residue; d: D form. The star is where a group is joined. Sta = CC(C)C[C@H](N)[C@@H](O)CC(=O)O; Isovaleryl = CC(C)CC(=O)*

human brain P-2 enzyme (peak B), aspartic protease identified as cathepsin D, sequence (P07339 with tags, fused parts or gaps): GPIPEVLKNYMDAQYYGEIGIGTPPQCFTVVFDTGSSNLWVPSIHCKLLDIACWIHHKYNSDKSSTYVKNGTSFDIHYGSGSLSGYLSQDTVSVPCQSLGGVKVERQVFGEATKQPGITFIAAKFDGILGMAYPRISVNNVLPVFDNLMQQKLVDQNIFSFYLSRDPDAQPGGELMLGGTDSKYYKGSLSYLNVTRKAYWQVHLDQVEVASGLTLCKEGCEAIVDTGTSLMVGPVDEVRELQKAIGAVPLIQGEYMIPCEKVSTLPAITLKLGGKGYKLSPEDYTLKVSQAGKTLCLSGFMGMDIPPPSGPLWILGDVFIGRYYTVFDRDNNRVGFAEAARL

Turning to `CC(C)CC(=O)N[C@H](C(=O)N[C@H](C(=O)N[C@@H](CC(C)C)[C@@H](O)CC(=O)N[C@@H](C)C(=O)N[C@@H](CC(C)C)[C@@H](O)CC(=O)O)C(C)C)C(C)C` [pepstatin A] (Isovaleryl-VV[Sta]A[Sta]-OH), the “Inhibitor sensitivity of the pool Y protease (APP degradation)” value in experiment [1] was “unaffected”. For the same compound, the “Inhibition of peptidase reaction catalyzed by the P-2 enzyme preparation” value in experiment [2] is “inhibited”.
